# “Also recorded” adds a separate entry of the source. Read-outs that look alike come from different tables or passages of the source.
# Assays:
# [1] = tested on: bone marrow derived phagocytes exposed to Mtb; format: cell-based, mouse
# [2] = tested on: Ca++ mobilization
# Protocol: FITC-sPIF binding to PBMCs subsets was determined using flow cytometry. sPIF's effect on Ca++ mobilization was tested by Flex station.
# [3] = tested on: C57bl6 mice; details: 0.3 nmol/g i.p.
# Protocol: Peritonitis was induced by injecting 3 ml 4% thioglycolate i.p. and after 20 hours, the mice were anaesthetized and the peritoneal cavity was flushed with 5 ml sterile PBS. Subsequently, monocytes/macrophages were quantified with F4/80 and CD11b in flow cytometry.
# Peritonitis was induced by injecting 3 ml 4% thioglycolate i.p. and after 20 hours, the mice were anaesthetized and the peritoneal cavity was flushed with 5 ml sterile PBS. Subsequently, monocytes and macrophages were quantified with F4/80 and CD11b in flow cytometry.
# [4] = tested on: THP-1 cells
# [5] = tested on: PBMCs; test: Cytokine secretion of naïve and stimulated PBMCs; format: cell-based, human; details: for TH2 and TH1 cytokines secretion in activated PBMCs: anti-CD3 or anti-CD3/anti-CD28 stimulation
# Protocol: FIG. 3A and FIG. 3B illustrate that mitogen stimulation enhances FITC-PIF binding to T and B cell populations. PBMC were cultured with PHA for 24 h. Binding of FITC-PIF to different PBMC populations was determined by two color flow cytometry. Binding was low (<10% in unstimulated cells a, upper panel from left to right) CD4+, CD8+, NK, (CD56+) and B (CD19+) cells. However, it led to a ˜30-fold increase in binding to b (lower panel from left to right), CD4+, CD8+ and B (CD19+) cells. Binding was unchanged for NK cells, even after a 72 hour incubation period. FIG. 3C, FIG. 3D, FIG. 3E, and FIG. 3F illustrate that sPIF promotes TH2/TH1 cytokine bias in stimulated PBMCs. […] FIG. 3B illustrates sPIF (50 nM); FIG. 3C illustrates PIFscr (50 nM); FIG. 3D illustrates sPIF (50 nM)+anti-CD3 mAb; FIG. 3E illustrates PIFscr+anti-CD3 mAb. sPIF affected variably stimulated PBMCs individual cytokines secretion. In contrast, some cytokine secretion in naïve PBMCs decreased (not shown). […] Cytokine secretion determined by Luminex 10-plex. […] PBMCs were cultured in the presence of anti-CD3/anti-CD28-Mab for 24-48 hours. […] The effect on PBMCs at 48 hours was less pronounced (data not shown). At the end of experiment mRNA was extracted and global gene expression was analyzed by using an Affymetrix chip.
# [6] = tested on: Balb/c splenocytes with irradiated C57/Bl cells; details: 4 days; 150 nM and 200 nM PIF significant
# Protocol: (§1) Mouse splenocytes were used for mixed Lymphocytes Reaction (MLR). Balb/c cells were cultured in the presence of irradiated C57/Bl cells for 4 days. […] Cell proliferation was tested by H3 Tymidine uptake assay. […] One representative experiment is shown out of four performed. […] Anti-CD3 antibodies were added to the medium for T cell activation. Cell proliferation was tested by H3 Thymidine uptake. […] At day 7, 100 ng/ml IFN γ was added. After 10 days cells were analyzed by FACS analysis using anti-B7-H1 antibodies. FIG. 2D illustrates murine macrophages were cultured with GM-CSF for 10 days. IFN-γ was added to the culture at day 7 for cell activation. […] This is relevant since B7-H1 is one of the newly defined inhibitory B7 family molecules. It is known that IFN gamma potently stimulates B7-H1 expression on APC. […] THP-1 cells were incubated for 48 hours, then were stimulated with […] and collected at 0, 1, 8, 12 and 24 hour time points. […] The 8 hour time point was selected to allow time for cell stimulation. The gene regulation comes quickly and the selected time point allows enough time for stimulation and not over/under. […] In the last 24 hours of the experiment, LPS was added to the culture for cell activation. Greiss reagent test was performed to detect NO secretion to the supernatant.
# [7] = tested on: B7-H1; details: 200 nM PIF, 10 days, IFN γ at day 7
# Protocol: as §1
# [8] = tested on: THP-1 cells; remark: listed apart in the source
# Protocol: as §1
# [9] = tested on: T cells; details: monocytes 10 days with 200 nM PIF, co-culture 4 days, anti-CD3
# Protocol: as §1
# [10] = tested on: human PBMCs
# [11] = tested on: stimulated human T lymphocytes; test: Cytokine production by anti-CD3/CD28 stimulated human mononuclear cells with Kv1.3 and IDE inhibitors; format: cell-based
# Protocol: Peripheral blood was obtained from two healthy donors. Mononuclear cells were purified by Ficol-Hypaque centrifugation. […] The culture supernatants were collected 24 hours post-treatment and were assayed for eleven Th1/Th2 cytokines using a multiplex system (Bender, Cat. No. BMS810FF): IL-1beta, IL-2, IL-4, IL-5, IL-6, IL-8, IL-10, IL-12p70, TNF-alpha, TNF-beta, IFN-gamma.
# [12] = tested on: RAW (Macrophage cell line); details: PIF 200 nM, 2 or 5 day incubation, no LPS
# Protocol: as §1
# In the last 24 hours of the experiment, LPS was added to the culture for cell activation. […]
# [13] = tested on: ApoE−/− mice; test: Atherosclerosis model, ApoE−/− mice fed high fat Western diet; format: in vivo, mouse
# Protocol: Aortic root and arch sections were stained with HE. The mean atherosclerotic area (μm2)±SEM was quantified.
# ORO histology was employed to identify lipids in the mouse atherosclerotic plaque. Lipids were quantified by red signal intensity percentage area of plaque±SEM. […] All animals still had very high cholesterol levels and to obtain a reading, the plasma was diluted to 1:10. After analysis, no statistical difference was seen between any group using one way ANOVA paired with Tukey's Multiple Comparison Test. […]
# Treatments were administered via 150 μL i.p. injection every 3rd day, for a total of 7 weeks.
# [14] = Surface Plasmon Resonance, LPS binding to PIF-labeled sensor surface; set-up: species or system E. coli; details: LPS 5, 25 and 100 μM, immobilized peptide, preliminary results
# Protocol: Surface Plasmon Resonance spectroscopy (SPR) was used to evaluate LPS and LPS receptors binding (TLR4-MD2 and CD14) to the PIF-labeled sensor surface. Two chemotypes of LPS (From E. coli O55:B5 and E. coli EH100) at 3 concentrations (5, 25 and 100 μM) were tested.
# [15] = tested on: Nos2; details: mouse, in vivo
substance,measurement,setting,value
IFNγ: phagocyte-activating cytokine,"IL-1a, IL-1b, TNFa, MIP-1alpha and KC response to Mtb, PIF and anti-Kv1.3, effect of IFN",[1],lost
same,"MCP-1, IL-6 and IL-5 response to Mtb and PIF, effect of IFN",[1],stopped
MVRIKPGSANKPSDD [PIF],action through Ca++ mobilization,[2],does not act through Ca++ mobilization
same,MCP-1 induced monocyte migration in mouse peritonitis model,[3],inhibits
same,MCP-1 induced transmigration of THP-1 cells,[4]; PIF 1 μM,significantly reduced
same,MCP-1 induced transmigration of THP-1 cells,[4]; PIF 10 μM,significantly reduced
same,TH2 and TH1 cytokines secretion in activated PBMCs,[5],increased
same,TH2 and TH1 cytokines secretion in activated PBMCs,[5]; listed as sPIF,promotes
same,"TH1 (TNF-α, IL2) cytokines in naïve PBMCs",[5]; naïve PBMCs,reduces
same,"cytokine secretion, PIF alone","[5]; without TCR stimulation, 24-48 hours",no significant promoting effect
same,allogenic lymphocyte proliferation in MLR,[6],reduce cells proliferation in a dose dependent manner
same,B7-H1 expression,[7],up-regulates
same,B7-H1 expression,[7]; listed as sPIF,significantly increased
same,"VCAM-1, IL-12b and IFNg in THP-1 cells",[8],reduced
same,T cell proliferation with PIF-treated monocytes,[9],reduced proliferation but did not block it
same,"MCP-1, IL-6 and IL-5 induction by Mtb, effect of PIF",[1],further induced; also recorded: augmented
same,MCP-1 secretion by isolated macrophages,[1],increased
same,"MIG and IP10 chemokines, effect of PIF",[1],modestly augmented
same,"TNF, IL-1a, IL-1b, IL-6, MCP-1, MIP1a and KC response of BMDCs to Mtb",[1],increased
same,"TNF, IL-1α, IL-1β, MIP1α and KC induction by Mtb, effect of PIF",[1],augmented
same,VEGF and FGFb (growth factors) in BMDCs exposed to Mtb,[1],augmented
same,"VEGF and FGFβ induction by Mtb, effect of PIF",[1],promoted; also recorded: augmented
same,anti-CD3-Mab-stimulated proliferation and mixed lymphocyte reaction,[10],blocked
same,"Th1/Th2 cytokine analytes, PIF alone","[11]; PIF 1, 10 and 50 nM, no stimulation, 24 hours",no effect
same,binding to intracellular insulin degrading enzyme (IDE),[11]; concluded from cell based assay using specific IDE inhibitor,bind
same,baseline NO,[12],did not affect
same,reduction of plaque area in the aortic root compared to PBS control,"[13]; PIF 0.1 mg/kg/day, i.p.",30%
same,plaque area of the aortic arch compared to both doses of scrPIF,[13]; PIF 1 mg/kg/day,reduction
same,reduction of plaque area in the aortic root compared to PBS control,"[13]; PIF 1 mg/kg/day, i.p.",46%
same,reduction of plaque area of the aortic arch compared to PBS control,"[13]; PIF 1 mg/kg/day, i.p.",43%
same,plaque area in the aortic root compared to both doses of scrPIF,[13]; higher dose of PIF (1 mg/kg/day),statistically significantly reduced
same,CD68 in the aortic root and arch,"[13]; mouse, in vivo",reduces
same,MCP-1 in the aortic root and arch,"[13]; mouse, in vivo",reduces
same,VCAM-1 in the aortic root and arch,"[13]; mouse, in vivo",reduces
same,atherosclerosis formation (protective effect),"[13]; mouse, in vivo",reduces
same,lipids (Oil Red O staining) in the aortic root and arch,"[13]; mouse, in vivo",reduces
same,binding to LPS chemotypes (SPR),[14],no apparent LPS binding
same,elevation of Nos2 expression in liver of semi-allogenic BMT mice,[15],completely prevented
